Experimental data reported in article PMC10581251, “Antisense inhibition of RNA polymerase α subunit of Clostridioides difficile” (Microbiology Spectrum, 2023).
≈ marks a conversion by molar mass, not a printed value. Where two headings read alike, the source gives them in different places.

Assays:
[1] = tested on: C. difficile ATCC BAA 1870; test: MIC/MBC broth microdilution, C. difficile ATCC BAA 1870; assay type: cell-based, Clostridioides difficile; details: for MIC: broth microdilution, anaerobic 48 hours 37°C, visual, read-out: MIC; for MBC: plated on BHIS agar, read-out: MBC
Experimental: (§1) The susceptibility of C. difficile isolates to the CPP-PNA conjugates or to the CPP alone was determined in vitro as described before with slight modifications ([43] [–] [45]). Briefly, the CPP-PNA conjugates, the CPP alone, and the antibiotics vancomycin and fidaxomicin were added in triplicate to the first row of ultra-low adhesion 96-well plates (Corning Inc., Corning, NY). A suspension of C. difficile equivalent to 0.5 McFarland solution was added to Mueller-Hilton II broth, which was then added to the ultra-low adhesion plate and then serially diluted. The plates were incubated anaerobically for 48 hours at 37°C. The minimum inhibitory concentration was defined as the lowest concentration of the CPP-PNA conjugate that could inhibit bacterial growth when observed visually.
(§2) The MIC and MBC experiments were repeated twice.

[2] = tested on: C. difficile 1071; test: MIC/MBC broth microdilution, C. difficile 1071; assay type: cell-based, Clostridioides difficile; details: for MIC: broth microdilution, anaerobic 48 hours 37°C, visual, read-out: MIC; for MBC: plated on BHIS agar, read-out: MBC
Experimental: as §1, §2

[3] = tested on: C. difficile 630; test: Effect of high bacterial inoculum on activity; assay type: cell-based, Clostridioides difficile; details: 8 hours; for Log reduction: vs no treatment
Experimental: The in vitro efficacy of the PNA constructs against a high inoculum size of C. difficile 630 was determined. Briefly, the PNA constructs and control antibiotics, at a concentration of 1× MIC, were added in triplicate to low adhesion microcentrifuge tubes (Corning Inc., Corning, NY). A high inoculum of C. difficile suspension equivalent to ~5 × 10^6 and ~5 × 10^7 cells was added to the tubes, which were incubated anaerobically at 37°C. The number of viable bacteria in each treatment group was determined by serial dilution and plating on BHIS agar plates at 8 hours and 24 hours post-incubation, respectively. The effect of a high inoculum on the activity of the PNA construct was repeated twice.

[4] = tested on: rpoA gene (RNA polymerase α subunit) of C. difficile ATCC 630; test: RT-PCR rpoA gene expression; assay type: cell-based, Clostridioides difficile; details: 12 hours, qPCR
Experimental: (§3) The antisense effect of the rpoA-TAT conjugate was evaluated using a real-time quantitative reverse-transcriptase polymerase chain reaction (RT-PCR) assay ([11], [12]). Briefly, an overnight culture of C. difficile ATCC 630 was diluted in fresh Mueller-Hilton broth II and added in triplicate to low-adhesion microcentrifuge tubes. […] The tubes were incubated anaerobically at 37°C for 12 hours following which the bacterial pellet in each treatment group was collected by centrifugation at 10,000 × g for 10 minutes. Bacteria were subsequently lysed with recombinant lysostaphin (100 µg/mL) in Tris-EDTA (TE) buffer (1 mol/L Tris, 0.5 mol/L ethylenediaminetetraacetate pH 8, nuclease-free H20), and total RNA was extracted using the TRIzol Max Bacterial Isolation Kit as per the manufacturer’s instructions. Turbo DNAse was used to remove genomic DNA contamination from each sample as per the protocol. cDNA was synthesized using the SuperScript III First-Strand Synthesis Kit as per the manufacturer’s instructions. The relative quantification of cDNA for each treatment group was determined using the iTaq Universal SYBR Green One-Step Kit and CFX96 Real-Time PCR Detection System per the manufacturer’s instructions.
(§4) The constitutively expressed tpi gene was used as an internal control. Real-time RT-PCR results were analyzed using the 2^-ΔΔCT method.

[5] = tested on: toxin A (tcdA) gene of C. difficile ATCC 630; test: RT-PCR toxin A (tcdA) gene expression; assay type: cell-based, Clostridioides difficile; details: 12 hours, qPCR
Experimental: as §3, §4

[6] = tested on: toxin B (tcdB) gene of C. difficile ATCC 630; test: RT-PCR toxin B (tcdB) gene expression; assay type: cell-based, Clostridioides difficile; details: 12 hours, qPCR
Experimental: as §3, §4

[7] = tested on: spoOA gene of C. difficile ATCC 630; test: RT-PCR spoOA gene expression; assay type: cell-based; details: 12 hours, qPCR
Experimental: as §3, §4

[8] = tested on: gut microflora strains (Lactobacillus sp., Bacteroides sp., and Bifidobacterium sp.); test: Growth inhibition of representative gut microflora strains (summary); assay type: cell-based; details: broth microdilution, 48 hours
Experimental: The susceptibility of gut microflora strains to the rpoA-TAT conjugate was determined using the broth microdilution assay, as described above. Briefly, bacterial suspensions of Bifidobacterium sp. and Bacteroides sp., in supplemented BHIS broth, and Lactobacilli strains, in MRS broth, were added to ultra-low adhesion 96-well plates and serially diluted. The MIC was recorded after 48 hours.

[9] = Clostridioides difficile, BAA1870

## CCc1c(Cl)c(O)c(Cl)c(O)c1C(=O)O[C@H]1[C@H](O)[C@H](OC)[C@H](OC/C2=C\C=C\C[C@H](O)/C(C)=C/[C@H](CC)[C@@H](O[C@@H]3OC(C)(C)[C@@H](OC(=O)C(C)C)[C@H](O)[C@@H]3O)/C(C)=C/C(C)=C/C[C@@H]([C@@H](C)O)OC2=O)O[C@@H]1C [Fidaxomicin, fidaxomicin]
[1]; [9]
  MIC: 1 µM (≈ 1.06 µg/mL)
  MBC: 1 µM (≈ 1.06 µg/mL)
[2]; Clostridioides difficile, 1071
  MIC: 1 µM (≈ 1.06 µg/mL)
  MBC: 1 µM (≈ 1.06 µg/mL)
[3]; inoculum 5 × 10^6, 1× MIC
  Log CFU: 0
  Log reduction: 6.37
[3]; inoculum 5 × 10^7, 1× MIC
  Log CFU: 0
  Log reduction: 7.77

## GRKKKRRQRRRYK-O-CATGGACAAAAC-NH2 [rpoA-TAT, PNA oligomer antisense to C. difficile rpoA covalently conjugated to the TAT cell penetrating peptide]
[1]
  MIC: 8 µM
  MBC: 8 µM
[2]
  MIC: 8 µM
  MBC: 8 µM
[3]; inoculum 5 × 10^6, 1× MIC
  Log CFU: 0
  Log reduction: 6.37
[3]; inoculum 5 × 10^7, 1× MIC
  Log CFU: 0
  Log reduction: 7.77
[4]; 0.125× MIC (1 µM), tpi internal control
  reduction of rpoA gene expression: 34%
[4]; 0.25× MIC (2 µM)
  reduction of rpoA gene expression: 46.3%
[4]; 0.5× MIC (4 µM)
  reduction of rpoA gene expression: 78.2%
[5]; 0.125× MIC (1 µM)
  reduction of toxin A (tcdA) gene expression: 41.3%
[5]; 0.25× MIC (2 µM)
  reduction of toxin A (tcdA) gene expression: 50.7%
[5]; 0.5× MIC (4 µM)
  reduction of toxin A (tcdA) gene expression: 71.2%
[6]; 0.125× MIC (1 µM)
  reduction of toxin B (tcdB) gene expression: 26%
[6]; 0.25× MIC (2 µM)
  reduction of toxin B (tcdB) gene expression: 51.2%
[6]; 0.5× MIC (4 µM)
  reduction of toxin B (tcdB) gene expression: 74.5%
[7]; 0.125× MIC (1 µM)
  reduction of spoOA gene expression: 45.2%
[7]; 0.25× MIC (2 µM)
  reduction of spoOA gene expression: 58.4%
[7]; 0.5× MIC (4 µM)
  reduction of spoOA gene expression: 68.5%
[8]
  concentration without growth inhibition of gut microflora strains: > 32 µM
